# Measurements taken from patent US8569344B2, “N-piperidinyl acetamide derivatives as calcium channel blockers” (Zalicus Pharmaceuticals Ltd., priority 2008, dated 2013).
# What was measured:
# [1] = biological target: T1, human α1H T-type channels (Homo sapiens, UniProt O95180); experiment: T-type calcium channel block, whole cell patch clamp in HEK cells (α1H); type: cell-based; conditions: HEK cells, patch clamp, mainly non-inactivated protocol; values above 10 μM shown as 10 μM; read-out: T-type Calcium Channel Block α1H IC50
# T1 construct: expressed in transfected cells; host or cells: HEK 293
# [2] = biological target: T2, human α1G T-type channels (Homo sapiens, UniProt O43497); experiment: T-type calcium channel block, whole cell patch clamp in HEK cells (α1G); type: cell-based; conditions: HEK cells, patch clamp, mainly non-inactivated protocol; values above 10 μM shown as 10 μM, below 0.30 μM shown as 0.30 μM; read-out: T-type Calcium Channel Block α1G IC50
# T2 construct: expressed in transfected cells; host or cells: HEK 293
# T2 sequence (O43497 whole entry): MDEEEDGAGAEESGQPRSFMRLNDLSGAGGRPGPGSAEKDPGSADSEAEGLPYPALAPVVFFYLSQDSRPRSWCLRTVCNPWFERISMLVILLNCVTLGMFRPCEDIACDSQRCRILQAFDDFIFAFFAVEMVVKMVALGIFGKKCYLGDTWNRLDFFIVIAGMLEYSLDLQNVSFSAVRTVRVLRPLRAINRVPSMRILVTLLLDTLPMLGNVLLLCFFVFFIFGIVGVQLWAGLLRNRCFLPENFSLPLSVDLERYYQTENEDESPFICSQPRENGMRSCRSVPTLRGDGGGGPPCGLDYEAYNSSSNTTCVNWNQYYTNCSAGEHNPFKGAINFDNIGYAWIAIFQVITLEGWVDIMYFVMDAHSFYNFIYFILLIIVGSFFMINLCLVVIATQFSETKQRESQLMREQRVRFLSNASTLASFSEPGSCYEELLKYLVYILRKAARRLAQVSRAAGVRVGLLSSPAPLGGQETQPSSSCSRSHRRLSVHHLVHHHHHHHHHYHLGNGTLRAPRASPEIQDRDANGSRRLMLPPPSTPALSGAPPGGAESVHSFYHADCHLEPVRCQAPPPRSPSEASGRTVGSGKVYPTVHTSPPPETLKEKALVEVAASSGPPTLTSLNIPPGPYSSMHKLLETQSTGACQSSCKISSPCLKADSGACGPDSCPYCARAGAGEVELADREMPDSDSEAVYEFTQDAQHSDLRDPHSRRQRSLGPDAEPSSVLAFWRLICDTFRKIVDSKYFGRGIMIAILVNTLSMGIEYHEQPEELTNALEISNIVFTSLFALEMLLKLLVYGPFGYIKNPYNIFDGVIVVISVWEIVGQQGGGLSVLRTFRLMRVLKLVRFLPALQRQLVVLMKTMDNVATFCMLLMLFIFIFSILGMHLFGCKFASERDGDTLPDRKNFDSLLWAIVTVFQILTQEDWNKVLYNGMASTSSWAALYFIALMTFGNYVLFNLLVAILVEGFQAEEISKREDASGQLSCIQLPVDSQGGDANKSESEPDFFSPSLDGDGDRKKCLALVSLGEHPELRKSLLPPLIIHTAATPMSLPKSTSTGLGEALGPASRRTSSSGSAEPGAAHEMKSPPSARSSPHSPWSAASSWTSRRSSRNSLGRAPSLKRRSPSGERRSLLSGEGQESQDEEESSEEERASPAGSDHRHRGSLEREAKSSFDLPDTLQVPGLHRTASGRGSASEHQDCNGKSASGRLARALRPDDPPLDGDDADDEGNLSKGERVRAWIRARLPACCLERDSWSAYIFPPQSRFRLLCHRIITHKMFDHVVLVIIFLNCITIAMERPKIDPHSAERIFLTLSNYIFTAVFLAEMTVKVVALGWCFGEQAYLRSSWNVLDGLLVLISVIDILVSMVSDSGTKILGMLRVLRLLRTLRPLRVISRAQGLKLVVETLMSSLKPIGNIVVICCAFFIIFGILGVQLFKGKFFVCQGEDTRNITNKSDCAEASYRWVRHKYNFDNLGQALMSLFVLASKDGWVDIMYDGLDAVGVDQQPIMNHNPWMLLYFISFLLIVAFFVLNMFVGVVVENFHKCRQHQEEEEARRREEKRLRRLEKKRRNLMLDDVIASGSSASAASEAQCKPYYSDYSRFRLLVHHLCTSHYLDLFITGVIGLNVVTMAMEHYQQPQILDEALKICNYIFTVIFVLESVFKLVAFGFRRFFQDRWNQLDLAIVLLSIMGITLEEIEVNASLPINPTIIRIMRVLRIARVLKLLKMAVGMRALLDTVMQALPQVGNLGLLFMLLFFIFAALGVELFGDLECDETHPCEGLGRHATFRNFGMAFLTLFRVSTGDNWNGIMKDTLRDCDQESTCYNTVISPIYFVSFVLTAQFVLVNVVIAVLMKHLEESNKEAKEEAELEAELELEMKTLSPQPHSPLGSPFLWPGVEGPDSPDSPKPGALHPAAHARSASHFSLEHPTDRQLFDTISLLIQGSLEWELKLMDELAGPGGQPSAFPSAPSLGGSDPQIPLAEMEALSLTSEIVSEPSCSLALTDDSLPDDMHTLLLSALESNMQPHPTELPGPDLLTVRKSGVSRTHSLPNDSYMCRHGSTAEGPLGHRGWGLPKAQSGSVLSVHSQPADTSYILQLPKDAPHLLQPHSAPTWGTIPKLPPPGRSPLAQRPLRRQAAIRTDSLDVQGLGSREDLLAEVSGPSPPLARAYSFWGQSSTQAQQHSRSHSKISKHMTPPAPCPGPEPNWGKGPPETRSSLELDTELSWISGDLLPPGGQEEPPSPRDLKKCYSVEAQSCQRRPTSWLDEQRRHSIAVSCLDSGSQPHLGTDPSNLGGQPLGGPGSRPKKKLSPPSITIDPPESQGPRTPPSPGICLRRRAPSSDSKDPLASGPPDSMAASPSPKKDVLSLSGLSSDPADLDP
# T1 sequence (O95180 whole entry): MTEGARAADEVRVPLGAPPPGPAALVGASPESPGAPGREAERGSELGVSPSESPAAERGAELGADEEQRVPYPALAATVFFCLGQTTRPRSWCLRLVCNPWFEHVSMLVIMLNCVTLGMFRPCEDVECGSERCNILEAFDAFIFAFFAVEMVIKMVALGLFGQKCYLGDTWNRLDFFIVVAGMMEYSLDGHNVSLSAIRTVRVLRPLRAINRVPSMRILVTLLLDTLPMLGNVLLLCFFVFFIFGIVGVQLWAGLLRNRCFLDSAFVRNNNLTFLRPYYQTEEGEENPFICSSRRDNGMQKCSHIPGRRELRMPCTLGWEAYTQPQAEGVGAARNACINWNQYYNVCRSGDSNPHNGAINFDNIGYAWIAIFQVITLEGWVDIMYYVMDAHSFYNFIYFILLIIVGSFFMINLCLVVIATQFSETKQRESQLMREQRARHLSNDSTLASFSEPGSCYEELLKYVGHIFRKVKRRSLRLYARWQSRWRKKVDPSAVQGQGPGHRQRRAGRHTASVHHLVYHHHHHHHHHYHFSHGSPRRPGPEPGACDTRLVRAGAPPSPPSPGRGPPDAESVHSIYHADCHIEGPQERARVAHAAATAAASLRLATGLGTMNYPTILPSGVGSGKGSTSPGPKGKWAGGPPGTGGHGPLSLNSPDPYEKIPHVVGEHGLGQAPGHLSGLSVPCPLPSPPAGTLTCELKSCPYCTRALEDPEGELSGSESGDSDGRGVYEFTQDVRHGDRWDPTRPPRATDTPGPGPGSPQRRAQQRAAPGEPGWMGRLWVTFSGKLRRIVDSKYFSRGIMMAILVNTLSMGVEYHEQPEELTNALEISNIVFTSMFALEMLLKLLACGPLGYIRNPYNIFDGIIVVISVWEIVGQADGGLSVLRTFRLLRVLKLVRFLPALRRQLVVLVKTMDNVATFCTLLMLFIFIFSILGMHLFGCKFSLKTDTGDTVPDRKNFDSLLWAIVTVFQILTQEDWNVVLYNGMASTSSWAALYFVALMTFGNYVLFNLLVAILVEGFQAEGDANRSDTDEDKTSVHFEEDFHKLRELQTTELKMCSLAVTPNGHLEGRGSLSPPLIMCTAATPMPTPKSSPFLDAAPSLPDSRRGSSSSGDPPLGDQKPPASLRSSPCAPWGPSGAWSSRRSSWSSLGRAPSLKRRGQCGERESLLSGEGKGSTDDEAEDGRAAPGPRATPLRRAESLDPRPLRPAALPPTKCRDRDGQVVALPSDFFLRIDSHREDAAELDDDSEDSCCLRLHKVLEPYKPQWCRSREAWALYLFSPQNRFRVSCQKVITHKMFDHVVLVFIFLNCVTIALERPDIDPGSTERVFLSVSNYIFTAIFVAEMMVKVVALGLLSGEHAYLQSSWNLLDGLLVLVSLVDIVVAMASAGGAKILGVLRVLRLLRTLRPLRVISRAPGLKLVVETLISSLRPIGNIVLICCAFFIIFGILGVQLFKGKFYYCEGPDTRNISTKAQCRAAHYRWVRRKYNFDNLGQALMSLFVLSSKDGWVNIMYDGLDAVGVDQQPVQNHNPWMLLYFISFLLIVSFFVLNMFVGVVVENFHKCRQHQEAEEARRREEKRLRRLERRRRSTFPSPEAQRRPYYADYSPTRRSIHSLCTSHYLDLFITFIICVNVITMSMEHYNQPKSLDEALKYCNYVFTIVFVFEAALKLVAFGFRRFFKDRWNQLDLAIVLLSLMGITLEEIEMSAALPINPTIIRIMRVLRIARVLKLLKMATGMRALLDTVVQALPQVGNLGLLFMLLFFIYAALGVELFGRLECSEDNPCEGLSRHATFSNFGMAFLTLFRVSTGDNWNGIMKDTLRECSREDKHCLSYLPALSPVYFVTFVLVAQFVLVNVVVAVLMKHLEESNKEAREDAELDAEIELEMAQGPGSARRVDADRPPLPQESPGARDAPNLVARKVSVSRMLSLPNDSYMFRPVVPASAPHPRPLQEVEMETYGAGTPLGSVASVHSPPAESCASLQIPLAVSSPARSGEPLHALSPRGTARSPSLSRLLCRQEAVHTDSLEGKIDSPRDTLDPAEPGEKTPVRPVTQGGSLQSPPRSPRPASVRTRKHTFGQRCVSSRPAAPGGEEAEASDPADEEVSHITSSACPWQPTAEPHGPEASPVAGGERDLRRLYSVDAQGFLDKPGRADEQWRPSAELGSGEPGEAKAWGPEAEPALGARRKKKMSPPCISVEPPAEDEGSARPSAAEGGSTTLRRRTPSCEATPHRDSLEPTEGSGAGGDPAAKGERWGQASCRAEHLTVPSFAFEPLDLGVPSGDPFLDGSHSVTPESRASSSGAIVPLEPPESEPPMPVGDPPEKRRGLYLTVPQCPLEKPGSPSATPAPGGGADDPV
Structure (SMILES),IC50 [1],IC50 [2]
"CC(C)(C)C(=O)NCCN1CCC(CNC(=O)c2cc(F)cc(F)c2)CC1 [Compound 293, 3,5-difluoro-N-((1-(2-pivalamidoethyl)piperidin-4-yl)methyl)benzamide]",4070 nM,5180 nM
"CC(C)(C)C(=O)NCCN1CCC(CNC(=O)c2cc(F)cc(C(F)(F)F)c2)CC1 [Compound 294, 3-fluoro-N-((1-(2-pivalamidoethyl)piperidin-4-yl)methyl)-5-(trifluoromethyl)benzamide]",810 nM,570 nM
"Cc1cc(C)cc(C(=O)NCC2CCN(CCNC(=O)C(C)(C)C)CC2)c1 [Compound 295, 3,5-dimethyl-N-((1-(2-pivalamidoethyl)piperidin-4-yl)methyl)benzamide]",1260 nM,1340 nM
"CC(C)(C)C(=O)NCCN1CCC(CNC(=O)c2cccc(C(F)(F)F)c2)CC1 [Compound 296, N-((1-(2-pivalamidoethyl)piperidin-4-yl)methyl)-3-(trifluoromethyl)benzamide]",1100 nM,610 nM
"CC(C)(C)C(=O)NCCN1CCC(CNC(=O)/C=C/c2cc(F)cc(F)c2)CC1 [Compound 297, (E)-3-(3,5-difluorophenyl)-N-((1-(2-pivalamidoethyl)piperidin-4-yl)methyl)acrylamide]",> 10000 nM,> 10000 nM
"CC(C)(C)C(=O)NCCN1CCC(CNC(=O)c2cc(Cl)cc(Cl)c2)CC1 [Compound 298, 3,5-dichloro-N-((1-(2-pivalamidoethyl)piperidin-4-yl)methyl)benzamide]",280 nM,< 300 nM
"CC(C)(C)C(=O)NCCN1CCC(CNC(=O)c2cccc(Cl)c2)CC1 [Compound 299, 3-chloro-N-((1-(2-pivalamidoethyl)piperidin-4-yl)methyl)benzamide]",1980 nM,1210 nM
"CC(C)(C)C(=O)NCCN1CCC(CNC(=O)/C=C/c2cc(Cl)cc(Cl)c2)CC1 [Compound 300, (E)-3-(3,5-dichlorophenyl)-N-((1-(2-pivalamidoethyl)piperidin-4-yl)methyl)acrylamide]",3250 nM,2810 nM
"CC(C)(C)C(=O)NCCN1CCC(CNC(=O)c2cc(Cl)cc(C(F)(F)F)c2)CC1 [Compound 301, 3-chloro-N-((1-(2-pivalamidoethyl)piperidin-4-yl)methyl)-5-(trifluoromethyl)benzamide]",450 nM,< 300 nM
"CC(C)(C)C(=O)NCCN1CCC(CNC(=O)c2cc(Br)cc(C(F)(F)F)c2)CC1 [Compound 302, 3-bromo-N-((1-(2-pivalamidoethyl)piperidin-4-yl)methyl)-5-(trifluoromethyl)benzamide]",300 nM,< 300 nM
"COc1cc(C(=O)NCC2CCN(CCNC(=O)C(C)(C)C)CC2)cc(C(F)(F)F)c1 [Compound 303, 3-methoxy-N-((1-(2-pivalamidoethyl)piperidin-4-yl)methyl)-5-(trifluoromethyl)benzamide]",600 nM,< 300 nM
"CC(C)(C#N)NC(=O)CN1CCC(CNC(=O)c2cc(C(F)(F)F)cc(C(F)(F)F)c2)CC1 [Compound 304, N-((1-(2-(2-cyanopropan-2-ylamino)-2-oxoethyl)piperidin-4-yl)methyl)-3,5-bis(trifluoromethyl)benzamide]",370 nM,< 300 nM
"CCOC1CCN(C(=O)CN2CCC(CNC(=O)c3cc(C(F)(F)F)cc(C(F)(F)F)c3)CC2)CC1 [Compound 305, N-((1-(2-(4-ethoxypiperidin-1-yl)-2-oxoethyl)piperidin-4-yl)methyl)-3,5-bis(trifluoromethyl)benzamide]",4450 nM,7420 nM
"O=C(NCC1CCN(CCNS(=O)(=O)C2CCC2)CC1)c1cc(F)cc(C(F)(F)F)c1 [Compound 306, N-((1-(2-(cyclobutanesulfonamido)ethyl)piperidin-4-yl)methyl)-3-fluoro-5-(trifluoromethyl)benzamide]",390 nM,340 nM
"O=C(NCC1CCN(CCNS(=O)(=O)C2CCCC2)CC1)c1cc(F)cc(C(F)(F)F)c1 [Compound 307, N-((1-(2-(cyclopentanesulfonamido)ethyl)piperidin-4-yl)methyl)-3-fluoro-5-(trifluoromethyl)benzamide]",340 nM,< 300 nM
"O=C(NCC1CCN(CCNS(=O)(=O)CCCF)CC1)c1cc(F)cc(C(F)(F)F)c1 [Compound 308, 3-fluoro-N-((1-(2-(3-fluoropropylsulfonamido)ethyl)piperidin-4-yl)methyl)-5-(trifluoromethyl)benzamide]",880 nM,1230 nM
"CC(C)(C)C(=O)NCCN1CCC(CNC(=O)c2cc(F)cc(Cl)c2)CC1 [Compound 309, 3-chloro-5-fluoro-N-((1-(2-pivalamidoethyl)piperidin-4-yl)methyl)benzamide]",350 nM,850 nM

Structure (SMILES),IC50 [1],IC50 [2]
"CC(C)(C)C(=O)NCCN1CCC(CNC(=O)c2cc(C(F)(F)F)ccn2)CC1 [Compound 310, N-((1-(2-pivalamidoethyl)piperidin-4-yl)methyl)-4-(trifluoromethyl) picolinamide]",> 10000 nM,> 10000 nM
"O=C(CCC(F)(F)F)NCCN1CCC(CNC(=O)c2cccc(OC(F)(F)F)c2)CC1 [Compound 311, N-((1-(2-(4,4,4-trifluorobutanamido)ethyl)piperidin-4-yl)methyl)-3-(trifluoromethoxy) benzamide]",330 nM,2650 nM
"Cc1cc(C)cc(C(=O)NCC2CCN(CCNC(=O)CCC(F)(F)F)CC2)c1 [Compound 312, 3,5-dimethyl-N-((1-(2-(4,4,4-trifluorobutanamido)ethyl)piperidin-4-yl)methyl)benzamide]",750 nM,4260 nM
"O=C(CCC(F)(F)F)NCCN1CCC(CNC(=O)c2cccc(C(F)(F)F)c2)CC1 [Compound 313, N-((1-(2-(4,4,4-trifluorobutanamido)ethyl)piperidin-4-yl)methyl)-3-(trifluoromethyl)benzamide]",620 nM,6310 nM
"O=C(/C=C/c1cc(F)cc(F)c1)NCC1CCN(CCNC(=O)CCC(F)(F)F)CC1 [Compound 314, (E)-N-(2-(4-((3-(3,5-difluorophenyl)acrylamido)methyl)piperidin-1-yl)ethyl)-4,4,4-trifluorobutanamide]",9240 nM,> 10000 nM
"O=C(CCC(F)(F)F)NCCN1CCC(CNC(=O)c2cccc(Cl)c2)CC1 [Compound 315, 3-chloro-N-((1-(2-(4,4,4-trifluorobutanamido)ethyl)piperidin-4-yl)methyl)benzamide]",1470 nM,9900 nM
"O=C(/C=C/c1cc(Cl)cc(Cl)c1)NCC1CCN(CCNC(=O)CCC(F)(F)F)CC1 [Compound 316, (E)-N-(2-(4-((3-(3,5-dichlorophenyl)acrylamido)methyl)piperidin-4-1-yl)ethyl)-4,4,4-trifluorobutanamide]",5830 nM,> 10000 nM
"COc1cc(C(=O)NCC2CCN(CCNC(=O)CCC(F)(F)F)CC2)cc(C(F)(F)F)c1 [Compound 317, 3-methoxy-N-((1-(2-(4,4,4-trifluorobutanamido)ethyl)piperidin-4-yl)methyl)-5-(trifluoromethyl)benzamide]",560 nM,660 nM
"COc1cc(F)cc(C(=O)NCC2CCN(CCNS(=O)(=O)C(C)C)CC2)c1 [Compound 318, 3-fluoro-5-methoxy-N-((1-(2-(1-methylethylsulfonamido)ethyl)piperidin-4-yl)methyl)benzamide]",870 nM,500 nM
"CC(C)S(=O)(=O)NCCN1CCC(CNC(=O)c2cc(Br)cc(Br)c2)CC1 [Compound 319, 3,5-dibromo-N-((1-(2-(1-methylethylsulfonamido)ethyl)piperidin-4-yl)methyl)benzamide]",150 nM,< 300 nM
"COc1cc(Cl)cc(C(=O)NCC2CCN(CCNS(=O)(=O)C(C)C)CC2)c1 [Compound 320, 3-chloro-5-methoxy-N-((1-(2-(1-methylethylsulfonamido)ethyl)piperidin-4-yl)methyl)benzamide]",1620 nM,760 nM
"COc1cc(F)cc(C(=O)NCC2CCN(CCNS(=O)(=O)C3CC3)CC2)c1 [Compound 321, N-((1-(2-(cyclopropanesulfonamido)ethyl)piperidin-4-yl)methyl)-3-fluoro-5-methoxybenzamide]",1920 nM,1330 nM
"COc1cc(Cl)cc(C(=O)NCC2CCN(CCNS(=O)(=O)C3CC3)CC2)c1 [Compound 322, 3-chloro-N-((1-(2-(cyclopropanesulfonamido)ethyl)piperidin-4-yl)methyl)-5-methoxybenzamide]",2140 nM,4050 nM
"O=C(NCC1CCN(CCNS(=O)(=O)C2CC2)CC1)c1cccc(Br)c1 [Compound 323, 3-bromo-N-((1-(2-(cyclopropanesulfonamido)ethyl)piperidin-4-yl)methyl)benzamide]",2660 nM,1870 nM
"COc1ccc(C(=O)NCC2CCN(CCNS(=O)(=O)C3CC3)CC2)cc1OC [Compound 324, N-((1-(2-(cyclopropanesulfonamido)ethyl)piperidin-4-yl)methyl)-3,4-dimethoxybenzamide]",> 10000 nM,> 10000 nM
"COc1cc(F)cc(C(=O)NCC2CCN(CCNS(=O)(=O)C(F)(F)F)CC2)c1 [Compound 325, 3-fluoro-5-methoy-N-((1-(2-(trifluoromethylsulfonamido)ethyl)piperidin-4-yl)methyl)benzamide]",3390 nM,6580 nM
"COc1cc(Cl)cc(C(=O)NCC2CCN(CCNS(=O)(=O)C(F)(F)F)CC2)c1 [Compound 326, 3-chloro-5-methoxy-N-((1-(2-(trifluoromethylsulfonamido)ethyl)piperidin-4-yl)methyl)benzamide]",6990 nM,> 10000 nM
